Laboratory results: patent publication US20240083921A1, “BORATE DERIVATIVE AND USES THEREOF” (Reistone Biopharma Company Limited, priority 2020, published 2024)
Read-outs that look alike come from different tables or passages of the source. Blank lines part the entries; values can stand above or below the compound they belong to.

Assays:
PDE4B1 enzyme = PDE4B1 enzyme (Homo sapiens (Human), UniProt Q07343); experiment: In vitro PDE4B enzyme activity detection test (IMAP FP, FAM-cAMP substrate); type: biochemical; details: PDE4B1 0.04 nM, FAM-cAMP 0.1 μM, 25° C. 30 min
Sequence of PDE4B1 enzyme (Q07343 whole entry): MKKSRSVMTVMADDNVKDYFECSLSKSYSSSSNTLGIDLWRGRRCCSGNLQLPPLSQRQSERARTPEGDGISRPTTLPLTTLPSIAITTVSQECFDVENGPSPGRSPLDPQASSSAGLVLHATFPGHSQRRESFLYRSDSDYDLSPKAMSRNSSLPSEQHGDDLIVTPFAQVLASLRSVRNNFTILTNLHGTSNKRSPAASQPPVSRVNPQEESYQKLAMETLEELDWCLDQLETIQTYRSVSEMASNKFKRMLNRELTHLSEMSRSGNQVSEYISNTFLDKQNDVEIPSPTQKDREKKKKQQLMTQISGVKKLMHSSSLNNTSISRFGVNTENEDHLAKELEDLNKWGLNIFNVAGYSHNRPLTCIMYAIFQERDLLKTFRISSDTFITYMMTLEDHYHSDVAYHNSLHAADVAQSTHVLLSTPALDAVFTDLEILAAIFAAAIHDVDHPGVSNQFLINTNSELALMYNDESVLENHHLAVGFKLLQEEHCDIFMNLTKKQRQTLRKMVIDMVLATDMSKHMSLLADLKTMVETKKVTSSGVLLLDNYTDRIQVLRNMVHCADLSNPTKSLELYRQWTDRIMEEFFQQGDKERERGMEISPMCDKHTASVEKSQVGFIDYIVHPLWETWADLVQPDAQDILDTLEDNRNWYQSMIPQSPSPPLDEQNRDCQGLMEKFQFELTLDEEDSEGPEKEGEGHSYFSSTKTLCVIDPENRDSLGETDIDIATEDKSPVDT
Experimental: Test Example 1 In vitro PDE4B Enzyme Activity Detection Test
1. Experimental Materials
First, a stock solution of the compound at a concentration of 10 mM was prepared in a test tube with 90% DMSO (10% water), and it was used to prepare a series of dilutions with a dilution factor of 1:5 and final concentrations starting from 100 μM to as low as 0.05 nM.
0.2 μl of the compound solution was transferred into a 384-well reaction plate, and 0.2 μl of 100% DMSO was transferred into both the negative and positive controls. Then, 10 μl of 2×PDE4B1 enzyme solution (making a final concentration of 0.04 nM) was added to each well, and 10 μl of 1×reaction buffer instead of the enzyme solution was added to the zero enzyme activity control wells. The plate was centrifuged at 1,000 rpm for 1 min and incubated at room temperature for 15 min. Next, 10 μl of 2×FAM-cAMP substrate solution (making a substrate final concentration of 0.1 μM) was added to each well of the 384-well reaction plate. The plate was centrifuged at 1,000 rpm for 1 min and the reaction was carried out at 25° C. for 30 min. After completion of the reaction, 60 μl of reaction stop solution was added to each well of the 384-well reaction plate to terminate the reaction, and the plate was incubated with shaking at 600 rpm on a shaker at room temperature in the dark for 60 min.
After the incubation, the RLU data were read and the inhibition rate was calculated. The IC50 value was calculated from the concentration-inhibition fitted curve, wherein the maximum value refers to the reading of the DMSO control and the minimum value refers to the reading of the zero enzyme activity control.
The in vitro inhibition of PDE4B1 enzyme activity by the Examples of the present disclosure was determined by the above test, and the measured IC50 value was shown in Table 1.

[1] = tested on: TNF-α release from peripheral blood mononuclear cells (PBMCs); experiment: Inhibition of pro-inflammatory cytokine (TNF-α) release from LPS-stimulated PBMCs, ELISA; type: cell-based; details: LPS 0.1 ng/ml, 24 hours
Text: Test Example 2 Inhibitory Effect of Compounds on the Release of Pro-Inflammatory Cytokines from Peripheral Blood Mononuclear Cells (PBMCs)
Frozen PBMCs were thawed and detected by Trypan blue staining for cell viability and number. The thawed PBMCs were washed with RPMI1640 complete medium (RPMI1640+10% FBS+1% PS) and centrifuged, and the supernatant was discarded. The PBMCs were resuspended with RPMI1640 complete medium and the cell density was adjusted to 2×10^6 cells/mL. 2×10^5 PBMC cells were plated in a 96-well cell culture plate, and the compounds to be tested were added at different concentrations, in a 1:5 serial dilution of 9 concentrations starting from a maximum compound concentration of 100 μM, each in duplicate. LPS was added at a final concentration of 0.1 ng/ml, making a total volume of 200 μL. For the negative and positive controls, only LPS and DMSO were added to the negative control well, while 1 μg/mL of dexamethasone was added to the positive control well in addition to cells and LPS as. The cells were incubated in an incubator at 37° C. for 24 hours. After completion of the incubation, 100 μL of cell culture supernatant was collected and detected by ELISA for the TNF-α level. 100 μL of CellTiter-Glo was added to the remaining cells in each well to detect the cell viability level. The IC50 value of inhibition of TNF-α release by the compounds was calculated.
The in vitro inhibition of pro-inflammatory cytokine release of PBMCs by the Examples of the present disclosure was determined by the above test, and the determined IC50 value was shown in Table 2.

[2] = tested on: IL-23 secretion of DC cells differentiated from human mononuclear cells; experiment: In vitro inhibition of IL-23 secretion of DC cells differentiated from human mononuclear cells, Zymosan stimulation, ELISA; type: cell-based; details: Table 3: inhibition of IL-23 secretion of DC cells, Zymosan 200 μg/ml, 24 hours
Experimental: Test Example 3 Experiment of in vitro Inhibition of IL-23 Secretion of DC Cells Differentiated from Human Mononuclear Cells by the Compounds
Day 0: Mononuclear cells were isolated from fresh human peripheral blood and purified and then resuspended in RPMI-1640 complete medium (RPMI-1640+10% FBS+1% P.S.+55 μM 2-Mercaptoethanol). When differentiating into DC cells, IL-4 at a concentration of 50 ng/ml and GM-CSF at 100 ng/ml were added to the medium. The cells were cultured at a density of 1×10^6 cells/mL in a culture dish with a diameter of 100 mm for differentiation in an incubator at 37° C. with a carbon dioxide concentration of 5%. Day 3: Half the volume of RPMI complete medium was replaced with fresh RPMI complete medium while maintaining the concentration of IL-4 at 50 ng/ml and GM-CSF at 100 ng/ml. Day 6: Non-adherent cells (DC cells) in the culture dish were collected and washed with PBS. The washed DC cells were resuspended with RPMI complete medium at a density of 1×10^6 cells/mL. Then. 1×10^5 DC cells were added to each well of the 96-well cell culture plate and pre-incubated with different dilutions of the compounds to be tested (or DMSO blank negative control at equivalent concentration) for 1 hour, followed by addition of 200 μg/ml of the TLR2 agonist Zymosan to stimulate the DC cells for 24 hours. Day 7: After 24 hours of Zymosan stimulation of DC cells. the supernatant in each well of the 96-well plate was collected and detected by ELISA for the concentration of IL-23.
The inhibition of IL-23 secretion of DC cells differentiated from human mononuclear cells by the compounds of the present disclosure was determined by the above test, and the determined IC50 value was shown in Table 3.

[3] = tested on: imiquimod-induced psoriasis mouse model; experiment: Suppression of imiquimod-induced psoriasis in mice (topical ointment); type: in vivo, Balb/c female mice; details: for Ratio of spleen weight to body weight Mean / Total clinical score Mean / Erythema score Mean / Scale score Mean / Thickness score Mean: IMQ mice; for Ratio of spleen weight to body weight Mean: Day 7, percentage of spleen to body weight; for Total clinical score Mean: endpoint; for Erythema score Mean / Scale score Mean / Thickness score Mean: scale 0-4; for clinical score at the endpoint (statement): each dose of Compound 12-1; for clinical score at the endpoint (statement) / effect on the ratio of spleen weight to body weight (statement): versus model; for effect on the ratio of spleen weight to body weight (statement): three dose groups of Compound 12-1
Text: Test Example 4 Experiment of Suppression of Imiquimod-Induced Psoriasis
An appropriate amount of Compound 12-1 was formulated into an ointment with the following components: 0.1% of Compound 12-1, 9% of hexanediol, 78.8% of white petrolatum, 5% of paraffin, 7% of glyceryl mono- and distearate, and 0.1% of […], which were mechanically stirred until an ointment was formed.
1) Model Establishment and Drug Administration
7-Week-old Balb/c female mice were used and the hair on their back in an area of 2 cm×3 cm was shaved the day before the experiment. On Days 1-7 of the experiment, the test compounds were applied on the skin for 6 hours, and then imiquimod (IMQ) ointment (Aldara (5%)) was continuously applied to the back skin of mice for 7 days, so as to establish a mouse model of psoriasis, while the control group was given the same dose of petrolatum ointment. On Days 3, 5 and 7, the severity of skin inflammation was assessed, including measurement of skin thickness, crusting and erythema, scored on a 5-point scale (0-4) respectively. The total score was used to assess the severity of skin inflammation. On Day 7 of the experiment, the spleen was collected and weighed, and the percentage of spleen to body weight was calculated to assess the immunosuppressive effect of the drug.
Normal control group, model control group, low, medium and high dose groups of Compound 12-1 (0.01%, 0.03% and 0.1%), 0.03% Compound 1-1 group, and 0.03% reference Compound A group were set up in this experiment.
The total score of the degree of skin inflammation was the clinical score, the indicators of which were relatively subjective, and higher score indicated more serious disease. The degree of increase in skin thickness was an objective assessment indicator, and more increase in thickness indicated more serious disease. The ratio of spleen weight to body weight was an objective assessment indicator, and smaller ratio of spleen weight to body weight indicated stronger immunosuppressive effect of the drug.

[4] = Compound A 0.03%, Compound 1-1 0.03%

IC50 (PDE4B1 enzyme): 110 pM | IC50 ([2]; read-out: PBMC IC50): 120 pM
SMILES: COc1ccc(-c2cncc([C@@H]3COB(O)C3)c2)c2c1OC1(CCCC1)C2 [Compound 1-1]
IC50 ([1]; read-out: PBMC IC50): 320 pM | Ratio of spleen weight to body weight Mean ([3]; 0.03% applied on skin): 0.63 | Total clinical score Mean ([3]; 0.03% applied on skin): 8.5 | Erythema score Mean ([3]; 0.03% applied on skin): 3.63 | Scale score Mean ([3]; 0.03% applied on skin): 2.75 | Thickness score Mean ([3]; 0.03% applied on skin): 2.13 | single item scores (statement) ([3]; Compound 1-1 0.03%, each dose group of Compound 12-1): mainly improve scab and reduce skin thickness | clinical score at the endpoint (statement) [3, 4]: significantly reduce the clinical score | effect on the ratio of spleen weight to body weight (statement) [3, 4]: significantly reduce the ratio of spleen weight to body weight | effect on the ratio of spleen weight to body weight compared with Compound A ([3]; same dose (0.03%)): significantly different from that of Compound A

IC50 (PDE4B1 enzyme): 400 pM
SMILES: COc1ccc(-c2cncc([C@H]3COB(O)C3)c2)c2c1OC1(CCCC1)C2 [Compound 1-2]
IC50 ([1]; read-out: PBMC IC50): 3260 pM

IC50 (PDE4B1 enzyme): 4500 pM
SMILES: COc1ccc(-c2cncc(C3COB(O)C3)c2)c2c1OC(C)C2 (stereo not drawn) [Compound 2]

IC50 (PDE4B1 enzyme): 1100 pM
SMILES: COc1ccc(-c2cccc(C3COB(O)C3)c2)c2c1OC1(CCCC1)C2 (stereo not drawn) [Compound 3]

IC50 (PDE4B1 enzyme): 83 pM
SMILES: COc1ccc(-c2cncc(C3COB(O)C3)n2)c2c1OC1(CCCC1)C2 (stereo not drawn) [Compound 4]
IC50 ([1]; PBMC): 2150 pM

SMILES: COc1ccc(-c2cc(C3COB(O)C3)cnn2)c2c1OC1(CCCC1)C2 (stereo not drawn) [Compound 5]
IC50 ([1]; PBMC): 1560 pM

IC50 (PDE4B1 enzyme): 410 pM
SMILES: COc1ccc(-c2cncc(C3COB(O)C3)c2)c2c1OC(C)(C)C2 (stereo not drawn) [Compound 6]
IC50 ([1]; PBMC): 1560 pM

IC50 (PDE4B1 enzyme): 55 pM
SMILES: COc1ccc(-c2cncc(C3COB(O)C3)c2)c2cc(C(F)(F)F)nn12 (stereo not drawn) [Compound 7]
IC50 ([1]; PBMC): 360 pM

SMILES: COc1ccc(-c2cncc(C3COB(O)C3)c2)c2c1OC(C)(C)CO2 (stereo not drawn) [Compound 8]
IC50 ([1]; PBMC): 740 pM

IC50 (PDE4B1 enzyme): 250 pM
SMILES: COc1ccc(-c2cncc(C3COB(O)C3)c2)c2c1OC(C)(C)CC2 (stereo not drawn) [Compound 9]
IC50 ([1]; PBMC): 300 pM

IC50 (PDE4B1 enzyme): 160 pM
SMILES: COc1ccc(-c2cncc(C3COB(O)C3)c2)c2ccc(C(F)(F)F)nc12 (stereo not drawn) [Compound 10]
IC50 ([1]; PBMC): 900 pM

IC50 ([2]; Homo sapiens, PBMC): 18 pM
SMILES: COc1ccc(-c2cncc([C@@H]3COB(O)C3)n2)c2c1OC(C)(C)CC2 [Compound 12-1]
IC50 ([1]; PBMC): 55 pM | Ratio of spleen weight to body weight Mean ([3]; 0.01% applied on skin): 0.64 | Total clinical score Mean ([3]; 0.01% applied on skin): 9.5 | Erythema score Mean ([3]; 0.01% applied on skin): 4 | Scale score Mean ([3]; 0.01% applied on skin): 3.13 | Thickness score Mean ([3]; 0.01% applied on skin): 2.38 | Ratio of spleen weight to body weight Mean ([3]; 0.03% applied on skin): 0.43 | Total clinical score Mean ([3]; 0.03% applied on skin): 7.57 | Erythema score Mean ([3]; 0.03% applied on skin): 3.86 | Scale score Mean ([3]; 0.03% applied on skin): 2.14 | Thickness score Mean ([3]; 0.03% applied on skin): 1.57 | Ratio of spleen weight to body weight Mean ([3]; 0.1% applied on skin): 0.31 | Total clinical score Mean ([3]; 0.1% applied on skin): 6.75 | Erythema score Mean ([3]; 0.1% applied on skin): 3.63 | Scale score Mean ([3]; 0.1% applied on skin): 1.38 | Thickness score Mean ([3]; 0.1% applied on skin): 1.75

IC50 (PDE4B1 enzyme): 300 pM | IC50 ([2]; Homo sapiens, PBMC): 610 pM
SMILES: CCCOc1cc(-c2cncc([C@@H]3COB(O)C3)c2)ccc1OC [Compound A, reference compound]
IC50 ([1]; PBMC): 1160 pM | Ratio of spleen weight to body weight Mean ([3]; 0.03% applied on skin): 0.96 | Total clinical score Mean ([3]; 0.03% applied on skin): 8.33 | Erythema score Mean ([3]; 0.03% applied on skin): 3.33 | Scale score Mean ([3]; 0.03% applied on skin): 2.5 | Thickness score Mean ([3]; 0.03% applied on skin): 2.5 | clinical score at the endpoint (statement) [3, 4]: significantly reduce the clinical score | effect on the ratio of spleen weight to body weight (statement) [3, 4]: no significant effect | increase of skin thickness (statement) ([3]; low and high dose groups of Compound 12-1 (0.01%, 0.1%), Compound A 0.03%): no significant effect

IC50 ([2]; Homo sapiens, PBMC): 12900 pM
SMILES: O=C(Nc1c(Cl)cncc1Cl)c1ccc(OC(F)F)c(OCC2CC2)c1 [Roflumilast, reference compound]
